Laboratory results published in patent US20220396569A1 (Carmot Therapeutics, Inc., priority 2021, published 2022).

biological target: T1, human GLP-1 receptor (Homo sapiens, UniProt P43220); test: GLP-1R cAMP Assay (HitHunter cAMP accumulation); format: cell-based; details: cAMP accumulation, CHO cells stably overexpressing human GLP-1 receptor, 30 min treatment; read-out: EC50
T1 construct: expressed in transfected cells
How it was run: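 CHO cells stably expressing human GLP-1R, 10,000 cells/well in HBSS with 10 mM HEPES and 625 μM IBMX, were mixed with anti-cAMP antibody reagent. Compound was applied as a 20-point dose response in triplicate for 30 min. After lysis and overnight detection, luminescence was read and dose-response curves analysed.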

T1 sequence (P43220 24-463): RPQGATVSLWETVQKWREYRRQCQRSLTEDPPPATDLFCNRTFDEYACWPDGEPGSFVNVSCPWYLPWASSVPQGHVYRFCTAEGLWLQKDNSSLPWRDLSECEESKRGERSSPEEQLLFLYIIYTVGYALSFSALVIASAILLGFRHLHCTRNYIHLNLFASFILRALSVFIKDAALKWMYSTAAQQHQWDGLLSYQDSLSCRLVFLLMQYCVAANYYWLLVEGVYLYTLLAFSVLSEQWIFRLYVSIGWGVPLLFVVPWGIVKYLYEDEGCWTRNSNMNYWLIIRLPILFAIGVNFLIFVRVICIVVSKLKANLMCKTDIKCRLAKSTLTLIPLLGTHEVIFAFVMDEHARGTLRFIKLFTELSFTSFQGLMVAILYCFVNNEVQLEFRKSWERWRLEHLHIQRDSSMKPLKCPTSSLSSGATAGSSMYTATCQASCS

Row | SMILES | EC50
1 | C[C@H]1[C@@H](Oc2ccnc(COc3ccc(F)cc3C#N)n2)CN1Cc1nc2ccc(C(=O)O)cc2n1C[C@@H]1CCO1 [Compound 549, 2-{[(2S,3S)-3-({2-[(2-cyano-4-fluorophenoxy)methyl]pyrimidin-4-yl}oxy)-2-methylazetidin-1-yl]methyl}-1-{[(2S)-oxetan-2-yl]methyl}-1H-1,3-benzodiazole-6-carboxylic acid] | > 500 nM
2 | N#Cc1ccc(OCc2cccc(O[C@H]3CCN(Cc4nc5ccc(C(=O)O)cc5n4C[C@@H]4CCO4)C3)c2)c(F)c1 [Compound 350, 2-{[(3S)-3-{3-[(4-cyano-2-fluorophenoxy)methyl]phenoxy}pyrrolidin-1-yl]methyl}-1-{[(2S)-oxetan-2-yl]methyl}-1H-1,3-benzodiazole-6-carboxylic acid] | < 50 nM
3 | CCn1cncc1Cn1c(CN2CC(=Cc3cnc(COc4ccc(Cl)cc4C#N)o3)C2)nc2ccc(C(=O)O)cc21 [Compound 225, 2-{[3-({2-[(4-chloro-2-cyanophenoxy)methyl]-1,3-oxazol-5-yl}methylidene)azetidin-1-yl]methyl}-1-[(1-ethyl-1H-imidazol-5-yl)methyl]-1H-1,3-benzodiazole-6-carboxylic acid] | < 50 nM
4 | CCn1cncc1Cn1c(CN2CC(=Cc3ccnc(COc4ccc(Cl)cc4Cl)c3)C2)nc2ccc(C(=O)O)cc21 [Compound 175, 2-{[3-({2-[(2,4-dichlorophenoxy)methyl]pyridin-4-yl}methylidene)azetidin-1-yl]methyl}-1-[(1-ethyl-1H-imidazol-5-yl)methyl]-1H-1,3-benzodiazole-6-carboxylic acid] | < 50 nM
5 | N#Cc1ccc(OCc2cc([C@H]3CCN(Cc4nc5c(F)cc(C(=O)O)cc5n4C[C@@H]4CCO4)C3)ccc2F)c(F)c1 (single isomer, unassigned) [Example 449] | < 50 nM
6 | Cc1ccc(OCc2cc(Oc3ccc(Cc4nc5ccc(C(=O)O)cc5n4C[C@@H]4CCO4)cn3)ccn2)c(F)c1 [Compound 544, (S)-2-((6-((2-((2-Fluoro-4-methylphenoxy)methyl)pyridin-4-yl)oxy)pyridin-3-yl)methyl)-1-(oxetan-2-ylmethyl)-1H-benzo[d]imidazole-6-carboxylic acid] | < 50 nM
7 | O=C(O)c1ccc2nc(CN3CC(Oc4cccc(COc5ccc(Cl)cc5Cl)c4)C3)n(Cc3cnco3)c2c1 [Compound 238, 2-[(3-{3-[(2,4-dichlorophenoxy)methyl]phenoxy}azetidin-1-yl)methyl]-1-[(1,3-oxazol-5-yl)methyl]-1H-1,3-benzodiazole-6-carboxylic acid] | < 50 nM
8 | Cc1cc(Oc2ccnc(COc3ccc(C#N)cc3F)n2)ccc1Cc1nc2ccc(C(=O)O)cc2n1C[C@@H]1CCO1 [Compound 541, 2-{[4-({2-[(4-cyano-2-fluorophenoxy)methyl]pyrimidin-4-yl}oxy)-2-methylphenyl]methyl}-1-{[(2S)-oxetan-2-yl]methyl}-1H-1,3-benzodiazole-6-carboxylic acid] | < 50 nM
9 | N#Cc1ccc(OCc2nc([C@H]3CCN(Cc4nc5c(F)cc(C(=O)O)cc5n4C[C@@H]4CCO4)C3)ccc2F)c(F)c1 [Compound 455, 2-{[(3S)-3-{6-[(4-cyano-2-fluorophenoxy)methyl]-5-fluoropyridin-2-yl}pyrrolidin-1-yl]methyl}-4-fluoro-1-{[(2S)-oxetan-2-yl]methyl}-1H-1,3-benzodiazole-6-carboxylic acid] | 50 to 500 nM
10 | O=C(O)c1ccc2nc(CN3CC=C(c4cccc(COc5ccc(Cl)cc5Cl)c4)C3)n(C[C@@H]3CCO3)c2c1 [Compound 401, 2-[(3-{3-[(2,4-dichlorophenoxy)methyl]phenyl}-2,5-dihydro-1H-pyrrol-1-yl)methyl]-1-{[(2S)-oxetan-2-yl]methyl}-1H-1,3-benzodiazole-6-carboxylic acid] | < 50 nM
11 | O=C(O)c1ccc2nc(CN3CC=C(c4ccc(F)c(COc5ccc(Cl)cc5Cl)c4)C3)n(C[C@@H]3CCO3)c2c1 [Compound 388, 2-[(3-{3-[(2,4-dichlorophenoxy)methyl]-4-fluorophenyl}-2,5-dihydro-1H-pyrrol-1-yl)methyl]-1-{[(2S)-oxetan-2-yl]methyl}-1H-1,3-benzodiazole-6-carboxylic acid] | < 50 nM
12 | N#Cc1ccc(OCc2nc([C@H]3CCN(Cc4nc5ccc(C(=O)O)cc5n4C[C@@H]4CCO4)C3)ccc2F)c(F)c1 (single isomer, unassigned) [Compound 519] | < 50 nM
13 | O=C(O)c1cc(F)c2nc(CN3CC[C@H](c4ccnc(COc5ccc(Cl)cc5F)c4)C3)n(C[C@@H]3CCO3)c2c1 (single isomer, unassigned) [Example 427] | < 50 nM
14 | CCn1cncc1Cn1c(CN2C[C@@H](Oc3cccc(COc4ccc(Cl)cc4Cl)c3)[C@@H]2C)nc2ccc(C(=O)O)cc21 [Compound 234, 2-{[(2S,3R)-3-{3-[(2,4-dichlorophenoxy)methyl]phenoxy}-2-methylazetidin-1-yl]methyl}-1-[(1-ethyl-1H-imidazol-5-yl)methyl]-1H-1,3-benzodiazole-6-carboxylic acid] | < 50 nM
15 | CCn1cncc1Cn1c(CN2C[C@H](Oc3cccc(COc4ccc(Cl)cc4Cl)c3)[C@@H]2C)nc2ccc(C(=O)O)cc21 [Example 233, 2-(((2S,3S)-3-(3-((2,4-Dichlorophenoxy)methyl)phenoxy)-2-methylazetidin-1-yl)methyl)-1-((1-ethyl-1H-imidazol-5-yl)methyl)-1H-benzo[d]imidazole-6-carboxylic acid] | < 50 nM
16 | N#Cc1ccc(OCc2nc(N3CC[C@@H](Cc4nc5c(F)cc(C(=O)O)cc5n4C[C@@H]4CCO4)C3)ccc2F)c(F)c1 [Compound 534] | < 50 nM
17 | O=C(O)c1cc(F)c2nc(CN3CC=C(c4cc(COc5ccc(Cl)cc5F)ncc4F)C3)n(C[C@@H]3CCO3)c2c1 [Compound 452] | < 50 nM

More lines, now with the values ahead:

Row | EC50 | SMILES
18 | < 50 nM | CCn1cncc1Cn1c(CN2CCC(Cc3cccc4c3OC(C)(c3ccc(Cl)cc3F)O4)CC2)nc2ccc(C(=O)O)cc21 (stereo not drawn) [Compound 209]
19 | < 50 nM | O=C(O)c1ccc2nc(CN3CC=C(c4ccnc(COc5ccc(Cl)cc5F)c4)C3)n(C[C@@H]3CCO3)c2c1 [Compound 403, 2-[(3-{2-[(4-chloro-2-fluorophenoxy)methyl]pyridin-4-yl}-2,5-dihydro-1H-pyrrol-1-yl)methyl]-1-{[(2S)-oxetan-2-yl]methyl}-1H-1,3-benzodiazole-6-carboxylic acid]
20 | < 50 nM | N#CCC1(Cn2c(CN3CC=C(c4nc(COc5ccc(Cl)cc5F)ccc4F)C3)nc3ccc(C(=O)O)cc32)CC1 [Compound 438, 2-[(3-{6-[(4-chloro-2-fluorophenoxy)methyl]-3-fluoropyridin-2-yl}-2,5-dihydro-1H-pyrrol-1-yl)methyl]-1-{[1-(cyanomethyl)cyclopropyl]methyl}-1H-1,3-benzodiazole-6-carboxylic acid]
21 | < 50 nM | O=C(O)c1ccc2nc(CN3CCC(c4ccnc(COc5ccc(Cl)cc5Cl)c4)C3)n(C[C@@H]3CCO3)c2c1 (stereo partly drawn) [Compound 399]
22 | < 50 nM | N#Cc1ccc(OCc2nccc(O[C@H]3C[C@@H](Cc4nc5ccc(C(=O)O)cc5n4C[C@@H]4CCO4)C3)n2)c(F)c1 [Compound 551]
23 | < 50 nM | CCn1cncc1Cn1c(CN2CCC(Cc3cccc4c3O[C@](C)(c3ccc(Cl)cc3F)O4)CC2)nc2ccc(C(=O)O)cc21 (single isomer, unassigned) [Compound 222]
24 | 50 to 500 nM | N#Cc1ccc(OCc2cccc([C@H]3CCN(Cc4nc5ccc(C(=O)O)cc5n4C[C@@H]4CCO4)C3)c2)c(F)c1 [Compound 415, 2-{[(3R)-3-{3-[(4-cyano-2-fluorophenoxy)methyl]phenyl}pyrrolidin-1-yl]methyl}-1-{[(2S)-oxetan-2-yl]methyl}-1H-1,3-benzodiazole-6-carboxylic acid]
25 | < 50 nM | O=C(O)c1cc(F)c2nc(CN3CC=C(c4nc(COc5ccc(Cl)cc5F)ccc4F)C3)n(C[C@@H]3CCO3)c2c1 [Compound 437, 2-[(3-{6-[(4-chloro-2-fluorophenoxy)methyl]-3-fluoropyridin-2-yl}-2,5-dihydro-1H-pyrrol-1-yl)methyl]-4-fluoro-1-{[(2S)-oxetan-2-yl]methyl}-1H-1,3-benzodiazole-6-carboxylic acid]
26 | < 50 nM | O=C(O)c1ccc2nc(CN3CC[C@@H](c4ccc(F)c(COc5ccc(Cl)cc5F)n4)C3)n(C[C@@H]3CCO3)c2c1 (single isomer, unassigned) [Compound 516]
27 | < 50 nM | O=C(O)c1cc(F)c2nc(Cc3cc(F)c(Oc4ccnc(COc5ccc(Cl)cc5F)c4)cc3F)n(C[C@@H]3CCO3)c2c1 [Compound 538, 2-{[4-({2-[(4-chloro-2-fluorophenoxy)methyl]pyridin-4-yl}oxy)-2,5-difluorophenyl]methyl}-4-fluoro-1-{[(2S)-oxetan-2-yl]methyl}-1H-1,3-benzodiazole-6-carboxylic acid]
28 | < 50 nM | N#Cc1ccc(OCc2ccc(F)c(C3=CCN(Cc4nc5ccc(C(=O)O)cc5n4C[C@@H]4CCO4)C3)n2)c(Cl)c1 [Compound 458, 2-[(3-{6-[(2-chloro-4-cyanophenoxy)methyl]-3-fluoropyridin-2-yl}-2,5-dihydro-1H-pyrrol-1-yl)methyl]-1-{[(2S)-oxetan-2-yl]methyl}-1H-1,3-benzodiazole-6-carboxylic acid]
29 | < 50 nM | O=C(O)c1ccc2nc(CN3CC(Oc4ccnc(COc5ccc(Cl)cc5Cl)c4)C3)n(Cc3ccno3)c2c1 [Compound 236, 2-{[3-({2-[(2,4-dichlorophenoxy)methyl]pyridin-4-yl}oxy)azetidin-1-yl]methyl}-1-[(1,2-oxazol-5-yl)methyl]-1H-1,3-benzodiazole-6-carboxylic acid]
30 | < 50 nM | O=C(O)c1ccc2nc(CN3CCC(Cn4ccc(COc5ccc(Cl)cc5Cl)n4)CC3)n(C[C@@H]3CCO3)c2c1 [Example 127, (S)-2-((4-((3-((2,4-dichlorophenoxy)methyl)-1H-pyrazol-1-yl)methyl)piperidin-1-yl)methyl)-1-(oxetan-2-ylmethyl)-1H-benzo[d]imidazole-6-carboxylic acid]
